According to patent US10385103B2, “Cell-permeable (ICP)-SOCS3 recombinant protein and uses thereof” (CELLIVERY THERAPEUTICS, INC., priority 2014, dated 2019):

Tested on: RAW 264.7 cells
Experiment: Quantitative cell-permeability of FITC-labeled aMTD- or rPeptide-fused CRA recombinant proteins (flow cytometry)
Assay type: cell-based
Conditions: for Relative Ratio to aMTD AVE: cell-permeability of rPeptide-fused CRA recombinant protein relative to average of 240 aMTDs
Outline: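 RAW 264.7 cells were exposed to 10 μM FITC-labeled recombinant proteins, consisting of a non-functional cargo fused to aMTD or rPeptide sequences, for 1 hour at 37° C. Cells were washed three times in cold PBS and treated with 0.25% tripsin/EDTA for 20 minutes at 37° C. to strip surface-bound protein, then uptake was measured by flow cytometry.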

[1] = cell-permeability of aMTD-fused CRA recombinant protein relative to negative control (A: rP38)
[2] = cell-permeability of aMTD-fused CRA recombinant protein relative to reference CPP (B: MTM12)
[3] = cell-permeability of aMTD-fused CRA recombinant protein relative to reference CPP (C: MTD85)
[4] = cell-permeability relative to negative control rP38 (A type), aMTD-fused CRA recombinant protein, 10 μM FITC-labeled, 1 hour, 37° C., RAW 264.7 cells
[5] = cell-permeability relative to reference CPP MTD85 (C type), aMTD-fused CRA recombinant protein, 10 μM FITC-labeled, 1 hour, 37° C., RAW 264.7 cells
[6] = cell-permeability relative to reference CPP MTM12 (B type), aMTD-fused CRA recombinant protein, 10 μM FITC-labeled, 1 hour, 37° C., RAW 264.7 cells
[7] = 10 μM FITC-labeled, 1 hour, 37° C., RAW 264.7 cells
[8] = relative cell-permeability of rPeptide vs reference A (not defined)
[9] = relative cell-permeability of rPeptide vs reference CPP B: MTM12
[10] = relative cell-permeability of rPeptide vs reference CPP C: MTD85

602 (VIVALAAPVLAP; Amino acid Sequence of aMTD602) [compound 602]
Relative Ratio (Fold) A [1]: 9.9 Fold
Relative Ratio (Fold) B [2]: 5.8 Fold
Relative Ratio (Fold) C [3]: 3.4 Fold

561 (AAVAIVLPAVVP; Amino acid Sequence of aMTD561) [compound 561]
Relative Ratio (Fold) A [4]: 3.9 Fold
Relative Ratio (Fold) C [5]: 1.3 Fold
Relative Ratio (Fold) B [6]: 2.6 Fold

283 (AALLAPALIVAP; Amino acid Sequence of aMTD283) [compound 283]
Relative Ratio (Fold) A [4]: 3.1 Fold
Relative Ratio (Fold) C [5]: 1.0 Fold
Relative Ratio (Fold) B [6]: 2.0 Fold

807 (AVALAVPALVLP; Amino acid Sequence of aMTD807) [compound 807]
Relative Ratio (Fold) A [4]: 5.0 Fold
Relative Ratio (Fold) C [5]: 1.7 Fold
Relative Ratio (Fold) B [6]: 3.3 Fold

809 (LIVLAAPALAAP; Amino acid Sequence of aMTD809) [compound 809]
Relative Ratio (Fold) A [4]: 7.0 Fold
Relative Ratio (Fold) C [5]: 2.4 Fold
Relative Ratio (Fold) B [6]: 4.7 Fold

870 (VLVAAVLPIAAP; Amino acid Sequence of aMTD870) [compound 870]
Relative Ratio (Fold) A [1]: 16.6 Fold
Relative Ratio (Fold) B [2]: 11.1 Fold
Relative Ratio (Fold) C [3]: 5.6 Fold

285 (AIVLLPAAVVAP; Amino acid Sequence of aMTD285) [compound 285]
Relative Ratio (Fold) A [1]: 13.3 Fold
Relative Ratio (Fold) B [2]: 9.9 Fold
Relative Ratio (Fold) C [3]: 4.5 Fold

312 (VALLAPAVVVAP; Amino acid Sequence of aMTD912) [compound 312]
Relative Ratio (Fold) A [1]: 19.9 Fold
Relative Ratio (Fold) B [2]: 13.3 Fold
Relative Ratio (Fold) C [3]: 6.7 Fold

921 (IWWFVVLPLVVP; Amino acid Sequence of rPeptide ID 921) [compound 921]
Relative Ratio to aMTD AVE [7]: 0.14
Relative Ratio (Fold) A [8]: 2.8 Fold
Relative Ratio (Fold) B [9]: 1.9 Fold
Relative Ratio (Fold) C [10]: 0.9 Fold

390 (VPLLVPVVPVVP; Amino acid Sequence of rPeptide ID 390) [compound 390]
Relative Ratio to aMTD AVE [7]: 0.41

402 (ALAAVIPAAILP; Amino acid Sequence of aMTD402) [compound 402]
Relative Ratio (Fold) A [4]: 6.4 Fold
Relative Ratio (Fold) C [5]: 2.2 Fold
Relative Ratio (Fold) B [6]: 4.3 Fold

765 (AVALAVVPAVLP; Amino acid Sequence of aMTD765) [compound 765]
Relative Ratio (Fold) A [4]: 3.8 Fold
Relative Ratio (Fold) C [5]: 1.3 Fold
Relative Ratio (Fold) B [6]: 2.2 Fold

832 (AVAAIVPVIVAP; Amino acid Sequence of aMTD832) [compound 832]
Relative Ratio (Fold) A [4]: 4.1 Fold
Relative Ratio (Fold) C [5]: 1.4 Fold
Relative Ratio (Fold) B [6]: 2.7 Fold

725 (IAVLAVAPAVLP; Amino acid Sequence of aMTD725) [compound 725]
Relative Ratio (Fold) A [1]: 11.2 Fold
Relative Ratio (Fold) B [2]: 7.5 Fold
Relative Ratio (Fold) C [3]: 3.8 Fold

139 (TGSTNSPTCTST; Amino acid Sequence of rPeptide ID 139) [compound 139]
Relative Ratio to aMTD AVE [7]: 0.17

521 (LAALIVVPAVAP; Amino acid Sequence of aMTD521) [compound 521]
Relative Ratio (Fold) A [1]: 9.4 Fold
Relative Ratio (Fold) B [2]: 6.3 Fold
Relative Ratio (Fold) C [3]: 3.2 Fold

938 (VPVLLPVVVPVP; Amino acid Sequence of rPeptide ID 938) [compound 938]
Relative Ratio to aMTD AVE [7]: 0.28

365 (AVIVVAPALLAP; Amino acid Sequence of aMTD365) [compound 365]
Relative Ratio (Fold) A [1]: 9.3 Fold
Relative Ratio (Fold) B [2]: 6.2 Fold
Relative Ratio (Fold) C [3]: 3.1 Fold
Relative Ratio (Fold) A [4]: 9.3 Fold
Relative Ratio (Fold) C [5]: 3.1 Fold
Relative Ratio (Fold) B [6]: 6.2 Fold

321 (IVAVALPALAVP; Amino acid Sequence of aMTD321) [compound 321]
Relative Ratio (Fold) A [1]: 97.8 Fold
Relative Ratio (Fold) B [2]: 65.2 Fold
Relative Ratio (Fold) C [3]: 32.9 Fold

26 (AAIALAAPLAIV; Amino acid Sequence of rPeptide ID 26) [compound 26]
Relative Ratio to aMTD AVE [7]: 0.65

881 (AALIVVPAVAVP; Amino acid Sequence of aMTD881) [compound 881]
Relative Ratio (Fold) A [1]: 12.7 Fold
Relative Ratio (Fold) B [2]: 8.5 Fold
Relative Ratio (Fold) C [3]: 4.3 Fold

562 (ALIAAIVPALVP; Amino acid Sequence of aMTD562) [compound 562]
Relative Ratio (Fold) A [1]: 32.7 Fold
Relative Ratio (Fold) B [2]: 21.8 Fold
Relative Ratio (Fold) C [3]: 11.0 Fold

16 (NNSCTTYTNGSQ; Amino acid Sequence of rPeptide ID 16) [compound 16]
Relative Ratio to aMTD AVE [7]: 0.08
Relative Ratio (Fold) A [8]: 1.6 Fold
Relative Ratio (Fold) B [9]: 1.1 Fold
Relative Ratio (Fold) C [10]: 0.5 Fold

544 (IVALIVAPAAVP; Amino acid Sequence of aMTD544) [compound 544]
Relative Ratio (Fold) A [1]: 23.4 Fold
Relative Ratio (Fold) B [2]: 15.6 Fold
Relative Ratio (Fold) C [3]: 7.9 Fold

443 (ALAALVPVALVP; Amino acid Sequence of aMTD443) [compound 443]
Relative Ratio (Fold) A [1]: 8.0 Fold
Relative Ratio (Fold) B [2]: 5.3 Fold
Relative Ratio (Fold) C [3]: 2.7 Fold

466 (IIAAAAPLAIIP; Amino acid Sequence of rPeptide ID 466) [compound 466]
Relative Ratio to aMTD AVE [7]: 0.52

788 (AIAVAIAPVALP; Amino acid Sequence of aMTD788) [compound 788]
Relative Ratio (Fold) A [1]: 9.8 Fold
Relative Ratio (Fold) B [2]: 6.6 Fold
Relative Ratio (Fold) C [3]: 3.3 Fold

263 (ALAVIPAAAILP; Amino acid Sequence of aMTD263) [compound 263]
Relative Ratio (Fold) A [1]: 9.0 Fold
Relative Ratio (Fold) B [2]: 6.0 Fold
Relative Ratio (Fold) C [3]: 3.0 Fold

727 (VALAIALPAVLP; Amino acid Sequence of aMTD727) [compound 727]
Relative Ratio (Fold) A [1]: 54.7 Fold
Relative Ratio (Fold) B [2]: 36.7 Fold
Relative Ratio (Fold) C [3]: 18.5 Fold

766 (IVVIAVAPAVAP; Amino acid Sequence of aMTD766) [compound 766]
Relative Ratio (Fold) A [1]: 12.9 Fold
Relative Ratio (Fold) B [2]: 8.6 Fold
Relative Ratio (Fold) C [3]: 4.4 Fold

261 (LVLVPLLAAAAP; Amino acid Sequence of aMTD261) [compound 261]
Relative Ratio (Fold) A [1]: 18.5 Fold
Relative Ratio (Fold) B [2]: 12.3 Fold
Relative Ratio (Fold) C [3]: 6.2 Fold

424 (AVVVAAPVLALP; Amino acid Sequence of aMTD424) [compound 424]
Relative Ratio (Fold) A [4]: 6.6 Fold
Relative Ratio (Fold) C [5]: 2.2 Fold
Relative Ratio (Fold) B [6]: 4.4 Fold

565 (VAIVLVAPAVAP; Amino acid Sequence of aMTD565) [compound 565]
Relative Ratio (Fold) A [1]: 7.5 Fold
Relative Ratio (Fold) B [2]: 5.0 Fold
Relative Ratio (Fold) C [3]: 2.5 Fold

851 (VLAVVLPAVALP; Amino acid Sequence of aMTD851) [compound 851]
Relative Ratio (Fold) A [1]: 96.6 Fold
Relative Ratio (Fold) B [2]: 64.7 Fold
Relative Ratio (Fold) C [3]: 32.7 Fold

304 (AIILAPIAAIAP; Amino acid Sequence of aMTD304) [compound 304]
Relative Ratio (Fold) A [4]: 4.4 Fold
Relative Ratio (Fold) C [5]: 1.5 Fold
Relative Ratio (Fold) B [6]: 3.0 Fold
